Usually IC50 stands for the concentration needed to halve the response being measured.

Some results are limits rather than exact numbers.

The text below walks through data of PMC4999267, “Characterization of Promiscuous Binding of Phosphor Ligands to Breast-Cancer-Gene 1 (BRCA1) C-Terminal (BRCT): Molecular Dynamics, Free Energy, Entropy and Inhibitor Design” (PLoS Computational Biology, 2016).

This experiment has as its target BRCT(BRCA1) (Homo sapiens, UniProt P38398). As to the kind of experiment: fluorescence polarization competition. It is filed as binding. The source says: fluorescence polarization competition on BRCT(BRCA1)

BRCT(BRCA1), sequence (P38398 1646-1859): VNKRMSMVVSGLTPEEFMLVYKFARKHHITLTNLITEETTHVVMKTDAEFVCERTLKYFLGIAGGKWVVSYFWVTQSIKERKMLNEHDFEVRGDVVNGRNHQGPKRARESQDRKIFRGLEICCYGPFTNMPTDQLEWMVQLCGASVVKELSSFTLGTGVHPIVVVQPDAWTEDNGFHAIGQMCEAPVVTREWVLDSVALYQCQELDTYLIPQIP

The molecule `CC(=O)N[C@@H](COP(=O)(O)O)C(=O)Nc1cccc(CC(=O)N[C@@H](Cc2ccccc2)C(=O)O)c1` [N1] had an IC50 greater than 250 µM.
